From ChEMBL document CHEMBL5113383, “Application of the All-Hydrocarbon Stapling Technique in the Design of Membrane-Active Peptides” (J Med Chem, 2022)
Values after ≈ are worked out from the molar mass of the structure shown. Positions of bridges follow the written chain, without caps; N, C: chain ends. Non-standard residues stand in square brackets, D forms with d. Residues, ends and D or L forms follow the SMILES beside them. R8 = C=CCCCCCC[C@@](C)(N)C(=O)O; S5 = C=CCCC[C@](C)(N)C(=O)O

Legend:
[1] = tested on: Nakaseomyces glabratus; assay: Antimicrobial activity against Candida glabrata 896; assay type: functional
[2] = tested on: Candida tropicalis; assay: Antimicrobial activity against Candida tropicalis ATCC 20026; assay type: functional
[3] = tested on: Candida tropicalis; assay: Antimicrobial activity against Candida tropicalis 895; assay type: functional
[4] = tested on: Candida albicans; assay: Antimicrobial activity against Candida albicans SC5314; assay type: functional
[5] = tested on: [Candida] auris; assay: Antimicrobial activity against Candida auris 918; assay type: functional; conditions: Candidozyma auris
[6] = tested on: Pichia kudriavzevii; assay: Antimicrobial activity against Candida krusei ATCC 2340; assay type: functional
[7] = tested on: Candida parapsilosis; assay: Antimicrobial activity against Candida parapsilosis ATCC 22010; assay type: functional; conditions: Lodderomyces parapsilosis
[8] = tested on: Nakaseomyces glabratus; assay: Antimicrobial activity against Candida glabrata ATCC 1182; assay type: functional
[9] = tested on: Candida albicans; assay: Antimicrobial activity against Candida albicans 904; assay type: functional
[10] = tested on: [Candida] auris; assay: Antimicrobial activity against Candida auris 919; assay type: functional; conditions: Candidozyma auris
[11] = tested on: Candida albicans; assay: Antimicrobial activity against Candida albicans 901; assay type: functional
[12] = Hemolytic activity in human erythrocytes incubated for 1 hr; assay type: toxicity, cell-based, Erythrocyte

CC[C@H](C)[C@H](NC(=O)[C@H](CC(=O)O)NC(=O)[C@H](Cc1ccccc1)NC(=O)[C@H](CC(C)C)NC(=O)CNC(C)=O)C(=O)N[C@H](C(=O)N[C@@H](CCCCN)C(=O)N[C@@H](CCCCN)C(=O)N[C@@]1(C)CCC/C=C\CCC[C@@](C)(C(N)=O)NC(=O)[C@H](CO)NC(=O)[C@H](CCC(=O)O)NC(=O)[C@H](C)NC1=O)[C@@H](C)CC (Ac-GLFDIIKK[S5]AES[S5]-NH2; staple (Z) 9-13)
MIC [1]: > 128 µg/mL
MIC [2]: > 128 µg/mL
MIC [3]: 32 µg/mL (≈ 21.2 µM)
MIC [4]: > 64 µg/mL
MIC [5]: > 128 µg/mL
MIC [6]: > 128 µg/mL
MIC [7]: > 128 µg/mL
MIC [8]: > 128 µg/mL
MIC [9]: > 128 µg/mL
MIC [10]: > 128 µg/mL
MIC [11]: > 128 µg/mL

CC[C@H](C)[C@@H]1NC(=O)[C@@](C)(NC(=O)[C@H](CC(=O)O)NC(=O)[C@H](Cc2ccccc2)NC(=O)[C@H](CC(C)C)NC(=O)CNC(C)=O)CCC/C=C\CCC[C@@](C)(C(=O)N[C@@H](C)C(=O)N[C@@H](CCC(=O)O)C(=O)N[C@@H](CO)C(=O)N[C@@H](Cc2ccccc2)C(N)=O)NC(=O)[C@H](CCCCN)NC(=O)[C@H](CCCCN)NC1=O (Ac-GLFD[S5]IKK[S5]AESF-NH2; staple (Z) 5-9)
MIC [1]: > 128 µg/mL
MIC [2]: > 128 µg/mL
MIC [3]: 16 µg/mL (≈ 10.4 µM)
MIC [4]: 16 µg/mL (≈ 10.4 µM)
MIC [5]: > 128 µg/mL
MIC [6]: > 128 µg/mL
MIC [7]: > 128 µg/mL
MIC [8]: > 128 µg/mL
MIC [9]: > 128 µg/mL
MIC [10]: > 128 µg/mL
MIC [11]: > 128 µg/mL

CC[C@H](C)[C@H](NC(=O)[C@H](CCCCN)NC(=O)[C@]1(C)CCC/C=C\CCC[C@](C)(NC(=O)[C@H](CC(C)C)NC(=O)CNC(C)=O)C(=O)N[C@@H](CC(=O)O)C(=O)N[C@@H]([C@@H](C)CC)C(=O)N[C@@H]([C@@H](C)CC)C(=O)N1)C(=O)N[C@@H](C)C(=O)N[C@@H](CCC(=O)O)C(=O)N[C@@H](CO)C(=O)N[C@@H](Cc1ccccc1)C(N)=O (Ac-GL[S5]DII[S5]KIAESF-NH2; staple (Z) 3-7)
MIC [1]: > 128 µg/mL
MIC [2]: > 128 µg/mL
MIC [3]: > 128 µg/mL
MIC [4]: > 64 µg/mL
MIC [5]: > 128 µg/mL
MIC [6]: > 128 µg/mL
MIC [7]: > 128 µg/mL
MIC [8]: > 128 µg/mL
MIC [9]: > 128 µg/mL
MIC [10]: > 128 µg/mL
MIC [11]: > 128 µg/mL

CC[C@H](C)[C@H](NC(=O)[C@H](CCCCN)NC(=O)[C@H](CCCCN)NC(=O)[C@]1(C)CCC/C=C\CCC[C@](C)(NC(=O)CNC(C)=O)C(=O)N[C@@H](Cc2ccccc2)C(=O)N[C@@H](CC(=O)O)C(=O)N[C@@H]([C@@H](C)CC)C(=O)N1)C(=O)N[C@@H](C)C(=O)N[C@@H](CCC(=O)O)C(=O)N[C@@H](CO)C(=O)N[C@@H](Cc1ccccc1)C(N)=O (Ac-G[S5]FDI[S5]KKIAESF-NH2; staple (Z) 2-6)
MIC [1]: 128 µg/mL (≈ 82.8 µM)
MIC [2]: > 128 µg/mL
MIC [3]: 16 µg/mL (≈ 10.4 µM)
MIC [4]: > 64 µg/mL
MIC [5]: > 128 µg/mL
MIC [6]: > 128 µg/mL
MIC [7]: > 128 µg/mL
MIC [8]: > 128 µg/mL
MIC [9]: > 128 µg/mL
MIC [10]: > 128 µg/mL
MIC [11]: > 128 µg/mL

CC[C@H](C)[C@H](NC(=O)[C@H](CCCCN)NC(=O)[C@H](CCCCN)NC(=O)[C@@H](NC(=O)[C@]1(C)CCC/C=C\CCC[C@](C)(NC(C)=O)C(=O)N[C@@H](CC(C)C)C(=O)N[C@@H](Cc2ccccc2)C(=O)N[C@@H](CC(=O)O)C(=O)N1)[C@@H](C)CC)C(=O)N[C@@H](C)C(=O)N[C@@H](CCC(=O)O)C(=O)N[C@@H](CO)C(=O)N[C@@H](Cc1ccccc1)C(N)=O (Ac-[S5]LFD[S5]IKKIAESF-NH2; staple (Z) 1-5)
MIC [1]: > 128 µg/mL
MIC [2]: > 128 µg/mL
MIC [3]: > 128 µg/mL
MIC [4]: > 64 µg/mL
MIC [5]: > 128 µg/mL
MIC [6]: > 128 µg/mL
MIC [7]: 128 µg/mL (≈ 79.9 µM)
MIC [8]: > 128 µg/mL
MIC [9]: > 128 µg/mL
MIC [10]: > 128 µg/mL
MIC [11]: 32 µg/mL (≈ 20 µM)

CC[C@H](C)[C@H](NC(=O)[C@H](CC(=O)O)NC(=O)[C@H](Cc1ccccc1)NC(=O)[C@H](CC(C)C)NC(=O)CN)C(=O)N[C@H](C(=O)N[C@@H](CCCCN)C(=O)N[C@@]1(C)CCC/C=C\CCC[C@@](C)(C(=O)N[C@@H](Cc2ccccc2)C(N)=O)NC(=O)[C@H](CCC(=O)O)NC(=O)[C@H](C)NC(=O)[C@H]([C@@H](C)CC)NC1=O)[C@@H](C)CC (H-GLFDIIK[S5]IAE[S5]F-NH2; staple (Z) 8-12)
MIC [1]: > 128 µg/mL
MIC [2]: > 128 µg/mL
MIC [3]: > 128 µg/mL
MIC [4]: > 64 µg/mL
MIC [5]: > 128 µg/mL
MIC [6]: > 128 µg/mL
MIC [7]: > 128 µg/mL
MIC [8]: > 128 µg/mL
MIC [9]: > 128 µg/mL
MIC [10]: > 128 µg/mL
MIC [11]: > 128 µg/mL

CC[C@H](C)[C@@H]1NC(=O)[C@H](CCCCN)NC(=O)[C@@](C)(NC(=O)[C@@H](NC(=O)[C@@H](NC(=O)[C@H](CC(=O)O)NC(=O)[C@H](Cc2ccccc2)NC(=O)[C@H](CC(C)C)NC(=O)CN)[C@@H](C)CC)[C@@H](C)CC)CCC/C=C\CCC[C@@](C)(C(=O)N[C@@H](CO)C(=O)N[C@@H](Cc2ccccc2)C(N)=O)NC(=O)[C@H](C)NC1=O (H-GLFDII[S5]KIA[S5]SF-NH2; staple (Z) 7-11)
MIC [1]: > 128 µg/mL
MIC [2]: > 128 µg/mL
MIC [3]: > 128 µg/mL
MIC [4]: > 64 µg/mL
MIC [5]: > 128 µg/mL
MIC [6]: > 128 µg/mL
MIC [7]: > 128 µg/mL
MIC [8]: > 128 µg/mL
MIC [9]: > 128 µg/mL
MIC [10]: > 128 µg/mL
MIC [11]: > 128 µg/mL

CC[C@H](C)[C@H](NC(=O)[C@H](CC(=O)O)NC(=O)[C@H](Cc1ccccc1)NC(=O)[C@H](CC(C)C)NC(=O)CN)C(=O)N[C@@]1(C)CCC/C=C\CCC[C@@](C)(C(=O)N[C@@H](CCC(=O)O)C(=O)N[C@@H](CO)C(=O)N[C@@H](Cc2ccccc2)C(N)=O)NC(=O)[C@H]([C@@H](C)CC)NC(=O)[C@H](CCCCN)NC(=O)[C@H](CCCCN)NC1=O (H-GLFDI[S5]KKI[S5]ESF-NH2; staple (Z) 6-10)
MIC [1]: > 128 µg/mL
MIC [2]: > 128 µg/mL
MIC [3]: > 128 µg/mL
MIC [4]: > 64 µg/mL
MIC [5]: > 128 µg/mL
MIC [6]: > 128 µg/mL
MIC [7]: > 128 µg/mL
MIC [8]: > 128 µg/mL
MIC [9]: > 128 µg/mL
MIC [10]: > 128 µg/mL
MIC [11]: > 128 µg/mL

CC[C@H](C)[C@H](NC(=O)[C@]1(C)CCC/C=C\CCC[C@](C)(NC(=O)[C@H](CCCCN)NC(=O)[C@H](CCCCN)NC(=O)[C@H](Cc2c[nH]c3ccccc23)NC(=O)[C@H](CC(N)=O)NC(=O)[C@@H](N)C(C)C)C(=O)N[C@@H](CC(C)C)C(=O)NCC(=O)N[C@@H](CCCCN)C(=O)N1)C(=O)N[C@@H](CCCCN)C(=O)N[C@H](C(=O)N[C@H](C(=O)N[C@@H](CCCCN)C(N)=O)C(C)C)C(C)C (H-VNWKK[S5]LGK[S5]IKVVK-NH2; staple (Z) 6-10)
HC50 at 1 h [12]: 31.3 µM

CC[C@H](C)[C@@H]1NC(=O)[C@H](CCCCN)NC(=O)[C@H](CCCCN)NC(=O)[C@](C)(NC(=O)[C@H](CC(N)=O)NC(=O)[C@@H](N)C(C)C)CCCCCC/C=C/CCC[C@@](C)(C(=O)N[C@H](C(=O)N[C@@H](CCCCN)C(=O)N[C@H](C(=O)N[C@H](C(=O)N[C@@H](CCCCN)C(N)=O)C(C)C)C(C)C)[C@@H](C)CC)NC(=O)[C@H](CCCCN)NC(=O)CNC(=O)[C@H](CC(C)C)NC1=O (H-VN[R8]KKILGK[S5]IKVVK-NH2; staple (E) 3-10)
HC50 at 1 h [12]: > 100 µM

CC[C@H](C)[C@@H]1NC(=O)[C@H](CCCCN)NC(=O)[C@H](CCCCN)NC(=O)[C@](C)(NC(=O)[C@H](CC(N)=O)NC(=O)[C@@H](N)C(C)C)CCCCCC/C=C\CCC[C@@](C)(C(=O)N[C@H](C(=O)N[C@@H](CCCCN)C(=O)N[C@H](C(=O)N[C@H](C(=O)N[C@@H](CCCCN)C(N)=O)C(C)C)C(C)C)[C@@H](C)CC)NC(=O)[C@H](CCCCN)NC(=O)CNC(=O)[C@H](CC(C)C)NC1=O (H-VN[R8]KKILGK[S5]IKVVK-NH2; staple (Z) 3-10)
HC50 at 1 h [12]: 100 µM

CC[C@H](C)[C@H](NC(=O)[C@H](CCCCN)NC(=O)CNC(=O)[C@H](CC(C)C)NC(=O)[C@]1(C)CCC/C=C\CCC[C@](C)(NC(=O)[C@@H](N)C(C)C)C(=O)N[C@@H](Cc2c[nH]c3ccccc23)C(=O)N[C@@H](CCCCN)C(=O)N[C@@H](CCCCN)C(=O)N1)C(=O)N[C@H](C(=O)N[C@@H](CCCCN)C(=O)N[C@H](C(=O)N[C@H](C(=O)N[C@@H](CCCCN)C(N)=O)C(C)C)C(C)C)[C@@H](C)CC (H-V[S5]WKK[S5]LGKIIKVVK-NH2; staple (Z) 2-6)
HC50 at 1 h [12]: 30 µM

H-GIGKFLHSAKKFGKAFVGEIMNS-NH2
hemolysis at 1 h ([12]; read-out: Activity): < 2%

H-GIMSSLMKKLAAHIAK-NH2
HC50 at 1 h [12]: > 400 µM
